Key:
IAR20 PC1 cells [1] = experiment: Factor-based classification of cell shape phenotype from interference contours (predicted time in culture); design: species or system rat
Experimental: Cell lines and interference preparations. Equations were developed to define changes in the signature-type for two epithelial cell lines that underwent transformation over a prolonged time of […] culture. […] IAR20 PC1 was a clonal derivative of a line called IAR20, which was cultured from liver cells of a BD-VI rat. […] Liver cells were grown in William's E medium supplemented with 10% fetal bovine serum, whereas the tracheal cells were grown in Waymouth's medium containing fetal bovine serum plus 0.1 μg/ml insulin and 0.1 μg /ml hydrocortisone. The cells were maintained and subcultured as described elsewhere (1,3). For experiments with insulin supplementation, insulin concentrations were raised to 1 and 10 μg/ml and maintained for two passages before the cells were used.
Information about shape features was derived from interference images. These were generated by culturing cells on anodized tantalum substrates, and then imaging them in reflected light. Cells were plated on substrates in replicate dishes, left overnight, and then exposed to experimental agents or to the solvent vehicle alone. After incubation with the agents for 2–5 h, samples were recovered, fixed in buffered 3% glutaraldehyde (pH 7.3), and air-dried. Randomly selected cells were imaged in a Zeiss Universal microscope, and the outlines of their three lowermost interference contours were digitized. […] Each experimental treatment was represented by a total of 50 cells.
Classification procedures. The classification methods employed a subset of the contour shape variables. Each 50-cell sample was submitted to multiple linear regression analysis for classification alongside a group of cells representing normal and transformed reference samples. The latter were obtained from the lines that underwent transformation as described above. Because the signature-type value was assigned relative to these samples, the solutions were in units of predicted time in culture. After obtaining such a value for each cell in an experiment, the differences in mean predicted times for treated and control cells were calculated. The sum of the squared standard deviations, divided by the number of observations, n, was used to compute the confidence limits of the mean: (s1)^2/n+(s2)^2/n Where s was the standard deviation for each sample. Dividing the difference between the means by the square root of the above expression yields a value that can be related to the degree of confidence, 1-α. […] This value was equivalent to a probability that the two samples differed of P≦0.02.
Again, classification of samples from experiments employed multiple linear regression methods, based on factors scores rather than on contour shape variables. Factors were generated by combining into a single database, the contour shape variables from highly malignant epithelial cells and precancerous lines that change progressively, eventually become neoplastic. […] Principal components were extracted and transformed by a pattern of rotation to produce latent factors, which described variances that had thereby been rendered orthogonal (8). Factor scores for each cell represented in the database to be estimated. These factor scores from known IAR20 PC1 or 1000 W cells are used as a reference to classify data from short-term experiments on the respective samples. The factors used in classification were selected by the SAS REG procedure (8). […] Predicted time-in-culture values were obtained by submitting the experimental cells to analysis, as described above for simple variables. The statistical significance of differences among sample means within each experiment was determined by the Duncan multiple range test.

IAR20 PC1 cells [2] = experiment: Uptake of fluid-phase marker horseradish peroxidase; format: cell-based, rat; settings: monensin treatment

## CC[C@@]1([C@@H]2O[C@@H]([C@H]3O[C@@](O)(CO)[C@H](C)C[C@@H]3C)C[C@@H]2C)CC[C@H]([C@]2(C)CC[C@]3(C[C@H](O)[C@@H](C)[C@@H]([C@@H](C)[C@@H](OC)[C@H](C)C(=O)O)O3)O2)O1 [monensin]
IAR20 PC1 cells [1]; 24 μM monensin alone or together with 50 μM ouabain, control 318 days
  average predicted time (factor-based classification): 344 days
IAR20 PC1 cells [1]; versus control
  factor #4 value (filopodia / sharp projections at cell edge): change in factor #4
IAR20 PC1 cells [1]; versus control, monensin 24 μM
  factor #8 value (sharp features in the second contour): affected
IAR20 PC1 cells [2]
  time after initial exposure by which horseradish peroxidase uptake was inhibited: ≤ 30 min

Reference: patent publication US7050620B2, “Method of assaying shape and structural features in cells” (priority 2001, dated 2006)
